Data on 8 molecules can be found in US6537803B1, “Amino acid transporters and uses” (Oregon Health Sciences University, priority 1993, dated 2003).

The test system of one series is neuronal cell. Conditions: cited from earlier work.
Series [1] concerns the target human EAAT1 excitatory amino acid transporter (Homo sapiens, UniProt P43003). Briefly: electrogenic amino acid uptake in EAAT1-expressing Xenopus oocytes. The note with it: for electrogenic uptake in EAAT1-expressing oocytes: 1000 μM.
The target in series [2] is T1, human ASCT1 neutral amino acid transporter (Homo sapiens, UniProt P43007).
T1 construct: expressed in transfected cells; host or cells: Xenopus laevis oocytes injected with in vitro transcribed RNA (pOTV vector)
T1 sequence (P43007 1-532): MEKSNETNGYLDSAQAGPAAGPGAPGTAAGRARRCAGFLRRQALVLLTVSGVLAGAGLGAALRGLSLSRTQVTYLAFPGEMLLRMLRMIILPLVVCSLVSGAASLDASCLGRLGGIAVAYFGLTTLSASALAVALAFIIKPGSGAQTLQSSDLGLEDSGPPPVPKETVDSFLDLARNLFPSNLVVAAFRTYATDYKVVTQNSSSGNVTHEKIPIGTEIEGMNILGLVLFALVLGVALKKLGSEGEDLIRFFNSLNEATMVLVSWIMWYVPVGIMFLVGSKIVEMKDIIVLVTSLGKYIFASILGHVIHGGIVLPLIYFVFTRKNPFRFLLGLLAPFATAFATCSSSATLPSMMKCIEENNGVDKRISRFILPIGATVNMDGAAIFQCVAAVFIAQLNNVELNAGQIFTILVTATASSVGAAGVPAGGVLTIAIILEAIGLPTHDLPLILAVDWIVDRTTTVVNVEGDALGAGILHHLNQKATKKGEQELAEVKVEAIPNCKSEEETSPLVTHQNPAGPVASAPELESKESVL
Briefly: radiolabeled amino acid uptake in ASCT1 RNA-injected Xenopus oocytes. In kind it is cell-based. Conditions: for rate of radiolabeled amino acid uptake, ASCT1 RNA-injected Oocytes: Amino Acid (1 mM), n = 5. The text has this: (§1) Following the PCR, the product of the amplification reaction was purified using standard techniques (Saiki et al., 1988, Science 239: 487-491). The DNA then digested with the restriction enzymes KpnI and XbaI and then cloned into the polylinker of an oocyte transcription vector (POTV; see Wang el al., 1991, Nature 352: 729-731) that had been digested with KpnI and XbaI. Synthetic RNA was then transcribed in vitro from this clone using the method of Kavanaugh et al. (1992, J. Biol. Chem. 267: 22007-22009) employing bacteriophage T7 RNA polymerase (New England Biolabs, Beverly, Mass.). 20-50 nL of ASCT1 RNA (at a concentration of about 400 μg/mL) was injected into defolliculated stage V-VI Xenopus oocytes excised from female Xenopus laevis anesthetized by immersion in 3-aminobenzoic acid for 60 min. Excised oocytes were treated with collagenase II (Sigma Chemical Co., St. Louis, Mo.) in calcium-free Barth's saline solution [comprising 88 mM NaCl, 1 mM KCl, 2.4 mM NaHCO3, 0.82 mM MgSO4, 7.5 mM Tris-HCl (pH 7.6), 50 U/mL Nystatin (Sigma) and 0.1 mg/mL gentamycin (Sigma)] for 60 min., and then incubated overnight at 15° C. in 50% Leibowitz's L-15 media (Grand Island Biological Co. (GIBCO), Long Island, N.Y.). After overnight incubation the oocytes were mechanically defolliculated and then were injected with ASCT-1 RNA and incubated at 19° C. for 48 h (see Kim el al., 1991, Nature 352: 725-728 for further details of Xenopus oocyte preparation and microinjection).
(§2) Amino acid transport in such oocytes was assayed using [^3H] alanine, [^3H] serine or [^35S] cysteine (obtained from New England Nuclear, Boston, Mass.). Briefly, microinjected oocytes were […] at −60 mV using a Dagan TEV-200 clamp amplifier with an Axon Instruments (Foster City, Calif.) TL-1 A/D interface controlled by pCLAMP software (Axon Instruments) (see Kavanaugh et al., 1992, J. Biol. Chem. 267: 22007-22009 for a detailed review of this methodology) and continuously superfused with ND-96 buffer (consisting of 96 mM NaCl/2 mM KCl/1.8 mM CaCl2/1 mM MgCl2/5 mM HEPES, pH 7.5). For transport measurements, this solution was changed to a solution containing varying concentrations of the radiolabeled amino acids in ND-96 buffer.

The subject of another series is Water-injected Oocytes. Briefly: radiolabeled amino acid uptake in water-injected Xenopus oocytes. The note with it: Amino Acid (1 mM); n = 5. In kind it is cell-based, Xenopus laevis.
Excerpt: as §1
Amino acid transport in such oocytes was assayed using [^3H] alanine, [^3H] serine or [^35S] cysteine (obtained from New England Nuclear, Boston, Mass.). Briefly, microinjected oocytes were […] at −60 mV using a Dagan TEV-200 clamp amplifier with an Axon Instruments (Foster City, Calif.) TL-1 A/D interface controlled by pCLAMP software (Axon Instruments) (see Kavanaugh et al., 1992, J. Biol. Chem. 267: 22007-22009 for a detailed review of this methodology) and continuously superfused with ND-96 buffer (consisting of 96 mM NaCl/2 mM KCl/1.8 mM CaCl2/1 mM MgCl2/5 mM HEPES, pH 7.5). […]

Series [3] concerns the target T1, human ASCT1 neutral amino acid transporter. Briefly: amino acid-induced inward current in voltage-clamped ASCT1-injected Xenopus oocytes. In kind it is cell-based. Conditions: for Imax (maximal current): L-stereoisomer, current normalized to the maximum response obtained with L-alanine, mean ± standard error; for membrane response (inward Na+ currents) of ASCT1-injected oocytes: ND-96 buffer, clamped at −60 mV.
Excerpt: as §1, §2
More detailed analyses of ithe kinetics of amino acid influx were performed by least squares linear regression analysis of induced inward current ([I]) plotted as a function of substrate amino acid concentration ([S]), using the equation shown in the legend of Table II.

In a further series the target is T2, human EAAT1 (Homo sapiens, UniProt P43003).
T2 construct: expressed in transfected cells; host or cells: COS-7 cells, pCMV5 construct, DEAE-dextran transient transfection
Briefly: inhibition of [3H]-L-glutamate uptake in COS-7 cells expressing EAAT1. The series is classed as cell-based. The text has this:
(§3) DNA fragments comprising the coding sequences of the novel glutamate transporter genes of the invention were excised from the POTV constructs described in Example 3 and subcloned into the mammalian expression plasmid pCMV5 (Anderson et al., 1989, J. Biol. Chem. 264: 8222-8229). These mammalian expression constructs were used for transient expression assays of glutamate transporter protein function after transfection of each of these constructs into COS-7 cells (Gluzman, 1981, Cell 23: 175-182).
(§4) Each of the pCMV5 constructs corresponding to EAAT1, EAAT2 and EAAT3 were introduced into COS-7 cells by DEAE-dextran facilitated transfection (see Sambrook et al., ibid.). Two day following transfection, the transfected cells were washed three times in phosphate-buffered saline (PBS) and then incubated with a mixture of radiolabeled amino acid ([^3H]-L-glutamate or [^3H]-D-aspartate; Dupont-NEN) and non-radiolabeled amino acid for 10 min. After incubation, the cells were washed three times with ice-cold PBS, solubilized with a solution of 0.1% sodium dodecyl sulfate (SDS) and the amount of radioactivity associated with the cells determined using standard liquid scintillation counting methods.
(§5) COS-7 cell cultures transformed with pCMVS-human glutamate transporter constructs as described in Example 4 were used to characterize the pharmacological properties of each of these transporter proteins relative to a variety of known glutamate transporter inhibitors. These assays were performed essentially as described in Example 4, with the exception that varying amounts of each of a number of known inhibitor compounds were included in the incubations.
(§6) In these experiments, uptake of 1 μM of […] was determined in the presence of the indicated amounts of each of the inhibitors.

The next series has as its target T3, human EAAT3 (Homo sapiens, UniProt P43005).
T3 construct: isolation of Clone GT11B containing a full-length open reading frame encoding EAAT3; expressed in transfected cells; host or cells: COS-7 cells, pCMV5 construct, DEAE-dextran transient transfection
T3 sequence (P43005 1-524): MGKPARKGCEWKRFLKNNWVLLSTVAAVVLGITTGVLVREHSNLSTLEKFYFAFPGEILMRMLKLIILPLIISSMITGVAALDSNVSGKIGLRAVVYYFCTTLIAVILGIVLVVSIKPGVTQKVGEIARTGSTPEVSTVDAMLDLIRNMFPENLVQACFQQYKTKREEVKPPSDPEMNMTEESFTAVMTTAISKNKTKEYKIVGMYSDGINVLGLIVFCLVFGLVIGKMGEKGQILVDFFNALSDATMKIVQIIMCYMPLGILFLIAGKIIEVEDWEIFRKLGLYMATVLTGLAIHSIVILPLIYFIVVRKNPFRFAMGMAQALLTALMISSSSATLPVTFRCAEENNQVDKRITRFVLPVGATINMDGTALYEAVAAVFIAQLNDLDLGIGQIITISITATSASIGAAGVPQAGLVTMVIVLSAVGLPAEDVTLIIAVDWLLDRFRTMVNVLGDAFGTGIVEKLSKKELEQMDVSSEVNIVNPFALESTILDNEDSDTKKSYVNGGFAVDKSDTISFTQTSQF
Briefly: inhibition of [3H]-L-glutamate uptake in COS-7 cells expressing EAAT3. In kind it is cell-based.
Excerpt: as §3, §4, §5, §6

The next series has as its target T4, human EAAT2 (Homo sapiens, UniProt P43004).
T4 construct: expressed in transfected cells; host or cells: COS-7 cells, pCMV5 construct, DEAE-dextran transient transfection
Briefly: inhibition of [3H]-L-glutamate uptake in COS-7 cells expressing EAAT2. The series is classed as cell-based.
Excerpt: as §3, §4, §5, §6

Substrate in series [4]: N[C@@H](CS)C(=O)O
Briefly: cells, lysate or membranes. Conditions: other: inward current vs extracellular substrate concentration.

Where two headings read alike, the source gives them in different places.

T4 sequence (P43004 whole entry): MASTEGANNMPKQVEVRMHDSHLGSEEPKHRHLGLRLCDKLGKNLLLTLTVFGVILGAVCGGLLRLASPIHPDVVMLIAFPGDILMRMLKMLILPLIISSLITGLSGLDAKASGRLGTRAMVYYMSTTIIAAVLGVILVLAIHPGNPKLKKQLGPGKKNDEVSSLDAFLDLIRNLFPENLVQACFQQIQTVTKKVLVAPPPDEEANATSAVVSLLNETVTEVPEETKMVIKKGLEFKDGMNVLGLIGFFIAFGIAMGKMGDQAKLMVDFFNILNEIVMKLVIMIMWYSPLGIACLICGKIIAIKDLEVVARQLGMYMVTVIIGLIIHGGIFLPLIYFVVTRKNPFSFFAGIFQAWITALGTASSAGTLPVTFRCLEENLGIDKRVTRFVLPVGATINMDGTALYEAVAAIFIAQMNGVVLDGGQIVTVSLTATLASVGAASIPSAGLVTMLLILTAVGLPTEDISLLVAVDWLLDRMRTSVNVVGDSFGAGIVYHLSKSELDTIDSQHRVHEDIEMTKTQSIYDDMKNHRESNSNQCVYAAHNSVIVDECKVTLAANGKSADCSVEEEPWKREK

For the molecule `N[C@@H](CCC(=O)O)C(=O)O` [L-glutamate], the “extracellular concentration causing neuronal cell death” value in the series with neuronal cell (Bouvier et al., 1992, Nicholls & Attwell) was above 300 µM; with neuronal cell (for 5 min., Choi et al., 1987) it was above 5 µM. In series [1], the “inward electric current in EAAT1-expressing oocytes (stereospecificity)” value was “did not result in the generation of an inward electric current”. Moreover, the “inward current in EAAT1-expressing oocytes” value in [1] (100 μM in ND-96) is recorded as “inward currents as high as several microamps”. Also, in series [1] (inward current vs extracellular substrate concentration), the Km came to 54 µM.

For `N[C@@H](CS)C(=O)O` [L-cysteine], the “rate of radiolabeled amino acid uptake, ASCT1 RNA-injected Oocytes” value (“rate … ASCT1 RNA-injected Oocytes” below) in series [2] is 19.2 ± 5.9 pmol/min per oocyte. Also, the “rate of radiolabeled amino acid uptake, Water-injected Oocytes” value (shortened to “rate … Water-injected Oocytes”) with Water-injected Oocytes came out at 1.0 ± 0.3 pmol/min per oocyte. In [1], the “electrogenic uptake in EAAT1-expressing oocytes” value (“electrogenic uptake” for short) is reported as “capable of being electrogenically transported”. Further, in series [3], the “Imax (maximal current)” value was 1.0 ± 0.04 and the “membrane response (inward Na+ currents) of ASCT1-injected oocytes” value (“membrane response (inward Na+ currents)” below) is “hyperpolarization of the cell plasma membrane was produced”.

Consider `C[C@H](N)C(=O)O` [L-alanine], for which, in series [2], the “rate … ASCT1 RNA-injected Oocytes” value is 18 ± 2 pmol/min per oocyte. Further, the “rate … Water-injected Oocytes” value in the series on Water-injected Oocytes is reported as 0.6 ± 0.1 pmol/min per oocyte. Besides, the “electrogenic uptake” value in [1] was “did not result in electrogenic uptake”. In [3], the “Imax (maximal current)” value is “(1.0)” and the “membrane response (inward Na+ currents)” value is “hyperpolarization of the cell plasma membrane was produced”.

As to `CNC(C)(C)C(=O)O` [MAIB, 2-methylaminoisobutyric acid], in series [2] (competitor 10 mM, [3H] alanine 100 μM), the “effect on the rate of uptake of [3H] alanine (competition)” value is reported as “had no effect”. Also, the “effect on membrane current of ASCT1-injected oocytes” value in series [3] (1 mM) was “had no effect”.

Take `N[C@@H](CO)C(=O)O` [L-serine]: the “rate … ASCT1 RNA-injected Oocytes” value in [2] is given as 20 ± 5.1 pmol/min per oocyte. Further, in the series on Water-injected Oocytes, the “rate … Water-injected Oocytes” value is on record as 0.4 ± 0.1 pmol/min per oocyte. The “electrogenic uptake” value in series [1] is “did not result in electrogenic uptake”. In addition, in series [3], the “Imax (maximal current)” value is recorded as 1.2 ± 0.08 and the “membrane response (inward Na+ currents)” value is reported as “hyperpolarization of the cell plasma membrane was produced”.

`C=C(C)[C@H]1CN[C@H](C(=O)O)[C@H]1CC(=O)O` [KAI, kainate]: the Ki was above 1 mM at human EAAT1 (uptake of 1 μM [3H]-L-glutamate, bound given in mM, read-out: Ki, glutamate uptake inhibition constant, EAAT1); above 1 mM on human EAAT3 (uptake of 1 μM [3H]-L-glutamate, bound given in mM, read-out: Ki, glutamate uptake inhibition constant, EAAT3); 59 ± 18 µM at human EAAT2 (uptake of 1 μM [3H]-L-glutamate, [S] << Km, Ki does not differ significantly from measured IC50, read-out: Ki, glutamate uptake inhibition constant, EAAT2).

In the case of `N[C@@H](Cn1oc(=O)[nH]c1=O)C(=O)O` [quisqualate], at human EAAT1 (COS cell culture), the “inhibition of glutamate uptake (in words), EAAT1” value is “ineffective”. Also, the “inhibition of glutamate uptake (in words), EAAT3” value at human EAAT3 (COS cell culture) is listed as “ineffective”. Also, the “inhibition of glutamate uptake (in words), EAAT2” value against human EAAT2 (COS cell culture) is on record as “ineffective”.

B1: human EAAT1 excitatory amino acid transporter (Homo sapiens) (protein)
chain: MTKSNGEEPKMGGRMERFQQGVRKRTLLAKKKVQNITKEDVKSYLFRNAFVLLTVTAVIVGTILGFTLRPYRMSYREVKYFSFPGELLMRMLQMLVLPLIISSLVTGMAALDSKASGKMGMRAVVYYMTTTIIAVVIGIIIVIIIHPGKGTKENMHREGKIVRVTAADAFLDLIRNMFPPNLVEACFKQFKTNYEKRSFKVPIQANETLVGAVINNVSEAMETLTRITEELVPVPGSVNGVNALGLVVFSMCFGFVIGNMKEQGQALREFFDSLNEAIMRLVAVIMWYAPVGILFLIAGKIVEMEDMGVIGGQLAMYTVTVIVGLLIHAVIVLPLLYFLVTRKNPWVFIGGLLQALITALGTSSSSATLPITFKCLEENNGVDKRVTRFVLPVGATINMDGTALYEALAAIFIAQVNNFELNFGQIITISITATAASIGAAGIPQAGLVTMVIVLTSVGLPTDDITLIIAVDWFLDRLRTTTNVLGDSLGAGIVEHLSRHELKNRDVEMGNSVIEENEMKKPYQLIAQDNETEKPIDSETKM
Turning to B1, the Km in series [4] came to 300 µM.
